# Several values for one entry are separate records, joined by “and”; a condition that tells them apart may be missing. Equal values may be shown once.
# What was measured:
# [1] = Stability of injected doses after formulation; format: physicochemical; conditions: at 48 hr after formulation
# Procedure: ^68Ga labeling: To 15 nmole ligand 4 (1 mg/mL DMSO) were added 20 μL of 2.0 N NaOAc, 500 μL ^68Ga-solution (2.25 mCi). The reaction was heated in a heating block at 90° C. for 10 minutes in a 3 mL closed vial. After cooling, the sample was analyzed by HPLC (HPLC: Eclise XDB C18 150×4.6 mm, gradient, 2 mL/min; A: 0.1% TFA in water; B: 0.1% TFA in ACN: 0-2 min 100% A; 2-4 min: from 0% to 100% B; 4-9 min: 100% B; 9-10 min: from 100% to 0% B). Radiochemical purity of [^68Ga]4 was >99% RCP (FIG. 1) and injected doses were stable at 2 hr after formulation.
# (§1) ^177Lu labeling: To 10 μg ligand (1 mg/mL DMSO) were added 15 μL of 2.0 N NaOAc, 400 μL 0.05 N HCl, and 20 μL ^177Lu-solution (780 μCi (Capintec setting 450 (reading×10)). The reaction was heated with a heating block at 95° C. for 1 hour in a 3 mL closed vial. After cooling, the sample was analyzed by HPLC (HPLC: Eclipse XDB-C18 150×4.6 mm, gradient, 1 mL/min; A: 0.1% TFA in water; B: 0.1% TFA in ACN: 0-4 min A/B 85/15%; 4-11 min: from 85/15 to 30/70%; 11-14 min: from 30/70% to 85/15%). Radiochemical purity of [^177Lu]4 (FIG. 2) and [^177Lu]7 was >98% and injected doses were stable at 48 hr after formulation.
# (§2) For iv injection 150 μL of labeled solution was diluted with saline to 3.75mL. Mice were injected with 150 μL of formulated dose. Injected radioactivity was 100 μCi and PSMA ligand amount was constant at 0.72 nmole/mouse.
# [2] = tested on: PC3-PIP (PSMA positive) and PC-3 tumors (PSMA negative); test: Biodistribution of 177Lu labeled compounds 4 and 7 in tumor bearing nude mice; format: in vivo, CD-1 male nude mice
# Procedure: as §1, §2
# Biodistribution of [^68Ga]4, [^177Lu]4 and [^177Lu]7 was determined in nude mice bearing PIP PC3 (PSMA positive) and PC3 (PSMA negative) tumors on the left and right shoulder, respectively, over a period of 192 h (Table 3a, 3b and 3c). […] The uptake in PC3 tumors (PSMA negative) of both ligands, [^177Lu]4 and [^177Lu]7, was clearly much lower than those of PC-3 PIP tumors (PSMA positive).
# [3] = tested on: PSMA-negative cell line, PC3; test: In vitro cell uptake, PC3 cells; format: cell-based; conditions: PC3 (do not express PSMA), 60 min
# Procedure: (§3) To determine the cell uptakes of the [^177Lu] labelled ligands, 5×10^5 cells/well were grown in 12-well plates in 1 mL of medium for 48 h. The cells were washed twice with PBS, and 900 μL fresh media were added. Radiolabelled ligand was added and the PSMA-inhibitor (2-PMPA) was applied in a final concentration of 10 μM to determine unspecific binding. All samples were prepared in triplicate. Following the incubation at 37° C., cells were washed twice to remove unbound activity and afterwards lysed in 1 mL of 0.5 M NaOH. Activity was measured in a gamma counter. Aliquots of the solution added to the cells were also measured for the calculation of the cellular uptake as % ID.
# [4] = tested on: PSMA-positive cell line, PIP PC3; test: In vitro cell uptake, PIP PC3 cells; format: cell-based
# Procedure: as §3, with “Radiolabelled ligand was added and the PSMA-inhibitor (2-PMPA) was applied in a final concentration of 10 μM to determine unspecific binding.” left out
# [5] = PIP PC3, 60 min, with PSMA inhibitor (2-PMPA, 2 uM)
structure (smiles),measurement,setting,value
O=C(O)CC[C@H](NC(=O)N[C@@H](CCCCNC(=O)[C@H](Cc1ccccc1)NC(=O)COc1ccc(C[C@H](NC(=O)CNC(=O)CCC(C(=O)O)N2CCN(CC(=O)O)CCN(C(CCC(=O)NCCOCCOCCNC(=O)CCCc3ccc(I)cc3)C(=O)O)CCN(CC(=O)O)CC2)C(=O)O)cc1)C(=O)O)C(=O)O.[177Lu] (some centres unmarked) [[^177Lu]7],Stability of injected doses,[1],stable
same,Biodistribution: Blood,[2]; 1 hr,13.20 ± 3.17 % dose/g
same,Biodistribution: Bone,[2]; 1 hr,1.78 ± 0.97 % dose/g
same,Biodistribution: Brain,[2]; 1 hr,0.35 ± 0.04 % dose/g
same,Biodistribution: Heart,[2]; 1 hr,3.79 ± 0.67 % dose/g
same,Biodistribution: Intestine,[2]; 1 hr,1.89 ± 0.18 % dose/g
same,Biodistribution: Kidney,[2]; 1 hr,37.38 ± 4.08 % dose/g
same,Biodistribution: Liver,[2]; 1 hr,2.63 ± 0.69 % dose/g
same,Biodistribution: Lung,[2]; 1 hr,5.89 ± 0.53 % dose/g
same,Biodistribution: Muscle,[2]; 1 hr,1.88 ± 0.27 % dose/g
same,Biodistribution: PC3 tumor,[2]; 1 hr,5.26 ± 1.63 % dose/g
same,Biodistribution: PIP PC3 tumor,[2]; 1 hr,12.51 ± 0.94 % dose/g
same,Biodistribution: Pancreas,[2]; 1 hr,1.71 ± 0.40 % dose/g
same,Biodistribution: Skin,[2]; 1 hr,5.18 ± 1.59 % dose/g
same,Biodistribution: Spleen,[2]; 1 hr,2.87 ± 0.82 % dose/g
same,Biodistribution: Stomach,[2]; 1 hr,1.57 ± 0.39 % dose/g
same,Biodistribution: Blood,[2]; 4 hrs,12.06 % dose/g and 12.06 ± 2.26 % dose/g
same,Biodistribution: Bone,[2]; 4 hrs,2.05 ± 0.89 % dose/g
same,Biodistribution: Brain,[2]; 4 hrs,0.37 ± 0.08 % dose/g
same,Biodistribution: Heart,[2]; 4 hrs,3.96 ± 0.63 % dose/g
same,Biodistribution: Intestine,[2]; 4 hrs,2.97 ± 1.71 % dose/g
same,Biodistribution: Kidney,[2]; 4 hrs,60.07 ± 2.41 % dose/g
same,Biodistribution: Liver,[2]; 4 hrs,2.92 ± 0.85 % dose/g
same,Biodistribution: Lung,[2]; 4 hrs,6.07 ± 0.66 % dose/g
same,Biodistribution: Muscle,[2]; 4 hrs,1.55 ± 0.84 % dose/g
same,Biodistribution: PC3 tumor,[2]; 4 hrs,5.17 ± 1.02 % dose/g
same,Biodistribution: PIP PC3 tumor,[2]; 4 hrs,35.34 ± 12.11 % dose/g
same,Biodistribution: Pancreas,[2]; 4 hrs,2.08 ± 0.82 % dose/g
same,Biodistribution: Skin,[2]; 4 hrs,5.85 ± 2.04 % dose/g
same,Biodistribution: Spleen,[2]; 4 hrs,6.16 ± 2.81 % dose/g
same,Biodistribution: Stomach,[2]; 4 hrs,1.86 ± 1.12 % dose/g
same,Biodistribution: Blood,[2]; 24 hrs (1 day),1.79 ± 0.98 % dose/g
same,Biodistribution: Bone,[2]; 24 hrs (1 day),0.33 ± 0.14 % dose/g
same,Biodistribution: Brain,[2]; 24 hrs (1 day),0.08 ± 0.04 % dose/g
same,Biodistribution: Heart,[2]; 24 hrs (1 day),0.73 ± 0.42 % dose/g
same,Biodistribution: Intestine,[2]; 24 hrs (1 day),0.41 ± 0.24 % dose/g
same,Biodistribution: Kidney,[2]; 24 hrs (1 day),18.51 ± 7.79 % dose/g
same,Biodistribution: Liver,[2]; 24 hrs (1 day),0.57 ± 0.27 % dose/g
same,Biodistribution: Lung,[2]; 24 hrs (1 day),1.33 ± 0.85 % dose/g
same,Biodistribution: Muscle,[2]; 24 hrs (1 day),0.36 ± 0.24 % dose/g
same,Biodistribution: PC3 tumor,[2]; 24 hrs (1 day),2.15 ± 0.69 % dose/g
same,Biodistribution: PIP PC3 tumor,[2]; 24 hrs (1 day),35.34±12.11 % dose/g and 34.36 ± 6.87 % dose/g
same,Biodistribution: Pancreas,[2]; 24 hrs (1 day),0.45 ± 0.30 % dose/g
same,Biodistribution: Skin,[2]; 24 hrs (1 day),1.37 ± 0.63 % dose/g
same,Biodistribution: Spleen,[2]; 24 hrs (1 day),0.75 ± 0.17 % dose/g
same,Biodistribution: Stomach,[2]; 24 hrs (1 day),0.36 ± 0.23 % dose/g
same,Biodistribution: Blood,[2]; 48 hrs (2 days),0.84 ± 0.25 % dose/g
same,Biodistribution: Bone,[2]; 48 hrs (2 days),0.19 ± 0.03 % dose/g
same,Biodistribution: Brain,[2]; 48 hrs (2 days),0.06 ± 0.01 % dose/g
same,Biodistribution: Heart,[2]; 48 hrs (2 days),0.59 ± 0.21 % dose/g
same,Biodistribution: Intestine,[2]; 48 hrs (2 days),0.23 ± 0.07 % dose/g
same,Biodistribution: Kidney,[2]; 48 hrs (2 days),16.13 ± 6.19 % dose/g
same,Biodistribution: Liver,[2]; 48 hrs (2 days),0.42 ± 0.08 % dose/g
same,Biodistribution: Lung,[2]; 48 hrs (2 days),0.93 ± 0.26 % dose/g
same,Biodistribution: Muscle,[2]; 48 hrs (2 days),0.22 ± 0.07 % dose/g
same,Biodistribution: PC3 tumor,[2]; 48 hrs (2 days),1.77 ± 0.55 % dose/g
same,Biodistribution: PIP PC3 tumor,[2]; 48 hrs (2 days),41.80 ± 10.71 % dose/g
same,Biodistribution: Pancreas,[2]; 48 hrs (2 days),0.39 ± 0.18 % dose/g
same,Biodistribution: Skin,[2]; 48 hrs (2 days),0.63 ± 0.03 % dose/g
same,Biodistribution: Spleen,[2]; 48 hrs (2 days),1.27 ± 1.12 % dose/g
same,Biodistribution: Stomach,[2]; 48 hrs (2 days),0.18 ± 0.02 % dose/g
same,Biodistribution: Blood,[2]; 96 hrs (4 days),0.11 ± 0.10 % dose/g
same,Biodistribution: Bone,[2]; 96 hrs (4 days),0.11 ± 0.01 % dose/g
same,Biodistribution: Brain,[2]; 96 hrs (4 days),0.02 ± 0.01 % dose/g
same,Biodistribution: Heart,[2]; 96 hrs (4 days),0.30 ± 0.23 % dose/g
same,Biodistribution: Intestine,[2]; 96 hrs (4 days),0.19 ± 0.18 % dose/g
same,Biodistribution: Kidney,[2]; 96 hrs (4 days),4.28 ± 2.61 % dose/g
same,Biodistribution: Liver,[2]; 96 hrs (4 days),0.22 ± 0.09 % dose/g
same,Biodistribution: Lung,[2]; 96 hrs (4 days),0.31 ± 0.22 % dose/g
same,Biodistribution: Muscle,[2]; 96 hrs (4 days),0.18 ± 0.12 % dose/g
same,Biodistribution: PC3 tumor,[2]; 96 hrs (4 days),0.97 ± 0.56 % dose/g
same,Biodistribution: PIP PC3 tumor,[2]; 96 hrs (4 days),24.23 ± 13.09 % dose/g
same,Biodistribution: Pancreas,[2]; 96 hrs (4 days),0.09 ± 0.06 % dose/g
same,Biodistribution: Skin,[2]; 96 hrs (4 days),0.46 ± 0.22 % dose/g
same,Biodistribution: Spleen,[2]; 96 hrs (4 days),0.52 ± 0.30 % dose/g
same,Biodistribution: Stomach,[2]; 96 hrs (4 days),0.09 ± 0.06 % dose/g
same,Biodistribution: Blood,[2]; 192 hrs (8 days),0.01 ± 0.00 % dose/g
same,Biodistribution: Bone,[2]; 192 hrs (8 days),0.09 ± 0.01 % dose/g
same,Biodistribution: Brain,[2]; 192 hrs (8 days),0.01 ± 0.00 % dose/g
same,Biodistribution: Heart,[2]; 192 hrs (8 days),0.07 ± 0.01 % dose/g
same,Biodistribution: Intestine,[2]; 192 hrs (8 days),0.12 ± 0.05 % dose/g
same,Biodistribution: Kidney,[2]; 192 hrs (8 days),1.58 ± 0.43 % dose/g
same,Biodistribution: Liver,[2]; 192 hrs (8 days),0.12 ± 0.02 % dose/g
same,Biodistribution: Lung,[2]; 192 hrs (8 days),0.09 ± 0.02 % dose/g
same,Biodistribution: Muscle,[2]; 192 hrs (8 days),0.03 ± 0.00 % dose/g
same,Biodistribution: PC3 tumor,[2]; 192 hrs (8 days),0.35 ± 0.03 % dose/g
same,Biodistribution: PIP PC3 tumor,[2]; 192 hrs (8 days),13.14 ± 2.57 % dose/g
same,Biodistribution: Pancreas,[2]; 192 hrs (8 days),0.03 ± 0.00 % dose/g
same,Biodistribution: Skin,[2]; 192 hrs (8 days),0.16 ± 0.03 % dose/g
same,Biodistribution: Spleen,[2]; 192 hrs (8 days),0.30 ± 0.07 % dose/g
same,Biodistribution: Stomach,[2]; 192 hrs (8 days),0.10 ± 0.09 % dose/g
same,Time of highest uptake in PIP PC3 tumors,"[2]; mouse, in vivo",48 h
same,Uptake in PC3 tumors (PSMA negative) versus PC-3 PIP tumors (PSMA positive),"[2]; mouse, in vivo",much lower
same,In vitro cell uptake,[3],0.7 % ID per 5 × 10^5 cells
same,In vitro cell uptake,"[4]; PIP PC3, 5 min",5.0 % ID per 5 × 10^5 cells
same,In vitro cell uptake,"[4]; PIP PC3, 15 min",7.8 % ID per 5 × 10^5 cells
same,In vitro cell uptake,"[4]; PIP PC3, 30 min",10.1 % ID per 5 × 10^5 cells
same,In vitro cell uptake,"[4]; PIP PC3, 60 min",11.4 % ID per 5 × 10^5 cells
same,In vitro cell uptake,[4]; [5],1.3 % ID per 5 × 10^5 cells
same,In vitro cell uptake,"[4]; PIP PC3, 120 min",11.9 % ID per 5 × 10^5 cells
"O=C(O)CC[C@H](NC(=O)N[C@@H](CCCCNC(=O)[C@H](Cc1ccc2ccccc2c1)NC(=O)[C@H]1CC[C@H](CNC(=O)CN2CCN(CC(=O)O)CCN(CC(=O)O)CCN(CC(=O)O)CC2)CC1)C(=O)O)C(=O)O.[177Lu] [[^177Lu]PSMA-617, reference compound]",In vitro cell uptake,[3],0.3 % ID per 5 × 10^5 cells
same,In vitro cell uptake,"[4]; PIP PC3, 5 min",3.5 % ID per 5 × 10^5 cells
same,In vitro cell uptake,"[4]; PIP PC3, 15 min",5.8 % ID per 5 × 10^5 cells
same,In vitro cell uptake,"[4]; PIP PC3, 30 min",6.8 % ID per 5 × 10^5 cells
same,In vitro cell uptake,"[4]; PIP PC3, 60 min",8.2 % ID per 5 × 10^5 cells
same,In vitro cell uptake,[4]; [5],1.0 % ID per 5 × 10^5 cells
same,In vitro cell uptake,"[4]; PIP PC3, 120 min",9.6 % ID per 5 × 10^5 cells

# — US20220125959A1, “PROSTATE-SPECIFIC MEMBRANE ANTIGEN (PSMA) INHIBITORS AS DIAGNOSTIC AND RADIONUCLIDE THERAPEUTIC AGENTS” (FIVE ELEVEN PHARMA INC., priority 2019, published 2022)
